Test results as given in patent US20150342893A1 (SIGMOID PHARMA LIMITED, priority 2014, published 2015).

How the values were obtained:
[1] = at 20° C.; cited from earlier work
HT29 cells [2] = experiment: Annexin V-PE / 7-AAD cell viability and apoptosis assay by flow cytometry; assay type: cell-based, human
Protocol: HT29 is a COX-2 positive human colorectal adenocarcinoma cell line and is in particular a model for adenocarcinoma, especially COX-2 positive adenocarcinoma. The HT29 cell line was grown in McCoy's 5A modified medium supplemented with 1.5 mM L-glutamine, 10% FBS (fetal bovine serum) and 1% penicillin/streptomycin. The cells were grown in a humidified atmosphere containing 5% CO2.
Two control groups were employed, one which involved no treatment (referred to as media) and the other which involved treatment with DMSO alone. Cell viability and the onset of apoptosis was monitored using an Annexin-PE Apoptosis Detection Kit which contains recombinant Annexin V-fluorochrome phycoerythrin (PE) conjugate and the vital dye 7-amino-actinomycin (7-AAD) followed by flow cytometry on a FACSCalibur system using CellQest software (BD Biosciences, USA) . Data for at least 10,000 cells were collected for each analysis made and two-dimensional plots of 7-AAD versus PE were generated.

[3] = cited from earlier work
[4] = Solubilisation measurements of celecoxib in vehicles (oils, surfactants, co-solvents); assay type: physicochemical
Protocol: Solubilisation studies were performed using a wide range of vehicles consisting of oils, surfactants and co-solvents. The vehicles used were Kolliphor® HS 15, Transcutol® P, Kolliphor® EL, Miglyol® 810N, Tween® 20 and Capryol® 90.
Celecoxib was added to measured quantities of the vehicles (excipients) in glass vials. These mixtures were stirred at room temperature on a magnetic stirrer; as an exception, the solubilisation measurements were performed at elevated temperatures in respect of vehicles which were solid at room temperature.

HT29 cells [5] = experiment: MTT cell proliferation assay; assay type: cell-based; details: Homo sapiens, HT-29, 72 hrs, tested at 20, 30, 50 and 100 μM, read-out: IC50 dose (dose required to reduce cell proliferation by 50% compared to medium)
Protocol: HT29 is a COX-2 positive human colorectal adenocarcinoma cell line and is in particular a model for adenocarcinoma, especially COX-2 positive adenocarcinoma. […] The cells were grown in a humidified atmosphere containing 5% CO2. Cell proliferation was measured using the VybrantMTT assay kit according to the manufacturer's guidelines. HT29 cells (10,000 cells) cells were plated in 100 μl of complete McCoy's 5A media in 96-well tissue culture dishes. […] In the case of celecoxib dissolved in DMSO, the celecoxib was dissolved overnight in DMSO before treatment. Two control groups were employed, one which involved no treatment (referred to as media) and the other which involved treatment with DMSO alone. […] The absorbance (A) was determined in a BioRad 680 microplate reader (BioRad, USA) at 550 nm.

[6] = Precipitation of drug during minibead manufacture (surfactant phase in contact with gelatin phase); assay type: physicochemical; details: inhibitor added to celecoxib minibead formulation
Protocol: Minibeads containing celecoxib were prepared via a manual drop in oil method. The minibeads were manufactured by combining the surfactant phase (drug dissolved in vehicles) with a gelatin phase (mixture of gelatin, water, sorbitol and SDS) and mixing at approximately 60° C. Droplets of the mixture were then allowed to fall into a bath of cooling/hardening oil (Miglyol® 810N) at approximately 10° C. As the mixture droplets fall in air, coacervation occurs to form a coacervate suspension in which droplets of the surfactant phase are surrounded by a layer of gelatine (multiple coacervates exist within a single minibead). The dropping of the minibead into a cooling/hardening bath allows the minibeads to harden before being recovered for drying. […] A range of oils was investigated (olive oil, mineral oil and other medium chain triglycerides) for use as the cooling/hardening oil in the production of minibeads. […] The minibeads were then air dried for 24 hr (over this time the water in the formulation evaporated). In some of the formulations other components were added to the gelatin phase to prevent precipitation of drug during manufacturing and also to help maintain the minibead structure.
Similar formulations were produced in which the drug loading was increased to 9-10% w/w, however precipitation was evident for these formulations on contact of the surfactant phase with the gelatin phase. […]

Compound | aqueous solubility [1] | % of cells that died by necrosis (HT29 cells [2]; 50 μM, 72 h) | combined % of cells that died via apoptosis (late and early apoptosis) (HT29 cells [2]; 50 μM, 72 h) | viability at 50 µM (HT29 cells [2]; Homo sapiens, HT-29, 72 h, n=6, read-out: % viable cells) | Log P [3] | solubility of celecoxib in Capryol 90 ([4]; vehicle Capryol 90, range between transparent and cloudy) | solubility of celecoxib in 2-(2-ethoxyethoxy)ethanol (Transcutol P) ([4]; vehicle Transcutol P) | maximum solubility of celecoxib in ethanol ([4]; vehicle ethanol) | IC50 (HT29 cells [5]) | Effect (potential precipitation inhibitor) [6]
Cc1ccc(-c2cc(C(F)(F)F)nn2-c2ccc(S(N)(=O)=O)cc2)cc1 [Celecoxib, celecoxib] | 3 to 7 µg/mL | 13.96±2.48% | 17.02±1.63% | 69 ± 2.71% | 3.5 | 58 to 64 mg/g | 345 to 390 mg/g | 100 to 125 mg/g | > 100 µM | –
CC(=O)Oc1c(C)c(C)c2c(c1C)CCC(C)(CCC[C@H](C)CCC[C@H](C)CCCC(C)C)O2 (stereo partly shown) [Vitamin E Acetate, vitamin E acetate] | – | – | – | – | – | – | – | – | – | Effective precipitation inhibitor but negative
